Test results reported in ChEMBL document CHEMBL1136816, “Synthesis and evaluation of ether and halogenated derivatives of mannopeptimycin glycopeptide antibiotics” (2003).
Converted amounts (≈) assume the structure as drawn. Values belong to the compound of their own block, whether it stands above or below them.

Legend:
Format in all cases: functional
[1] = test system: Staphylococcus aureus; experiment: In vitro minimum inhibitory concentration against Staphylococcus aureus; 2-4
[2] = test system: Streptococcus sp.; experiment: In vitro minimum inhibitory concentration against Streptococcus species; </=0.06-0.25
[3] = test system: Enterococcus sp.; experiment: In vitro minimum inhibitory concentration against Enterococcus species; 2-4
[4] = test system: Staphylococcus aureus; experiment: In vitro minimum inhibitory concentration against Staphylococcus aureus; 0.25-1
[5] = test system: Streptococcus sp.; experiment: In vitro minimum inhibitory concentration against Streptococcus species
[6] = test system: Enterococcus sp.; experiment: In vitro minimum inhibitory concentration against Enterococcus species; 1-2
[7] = test system: Staphylococcus aureus; experiment: In vitro minimum inhibitory concentration against Staphylococcus aureus; 1-2
[8] = test system: Enterococcus sp.; experiment: In vitro minimum inhibitory concentration against Enterococcus species; 1-4
[9] = test system: Staphylococcus aureus; experiment: In vitro minimum inhibitory concentration against Staphylococcus aureus; 1-8
[10] = test system: Streptococcus sp.; experiment: In vitro minimum inhibitory concentration against Streptococcus species; 0.5-4
[11] = test system: Enterococcus sp.; experiment: In vitro minimum inhibitory concentration against Enterococcus species; 4-64
[12] = test system: Enterococcus sp.; experiment: In vitro minimum inhibitory concentration against Enterococcus species; 0.25->64
[13] = test system: Streptococcus sp.; experiment: In vitro minimum inhibitory concentration against Streptococcus species; </=0.06-1
[14] = test system: Staphylococcus aureus; experiment: In vitro minimum inhibitory concentration against Staphylococcus aureus; 0.5->64

SMILES: COc1ccc2cc(CO[C@H]3[C@H](O)[C@H](O)[C@@H](O[C@H]4[C@H](O)[C@H](O)[C@@H](Oc5ccc(C[C@H]6NC(=O)[C@H]([C@@H](C)c7ccccc7)NC(=O)CNC(=O)[C@H](CO)NC(=O)[C@@H]([C@@H](O)[C@@H]7CN=C(N)N7[C@H]7O[C@H](CO)[C@@H](O)[C@H](O)[C@@H]7O)NC(=O)[C@H]([C@@H](O)[C@@H]7CN=C(N)N7)NC6=O)cc5)O[C@@H]4CO)O[C@@H]3CO)ccc2c1
- MIC [4]: 0.25 µg/mL (≈ 0.171 µM)
- MIC [5]: ≤ 0.06 µg/mL
- MIC [6]: 1 µg/mL (≈ 0.682 µM)

SMILES: C[C@@H](c1ccccc1)[C@@H]1NC(=O)CNC(=O)[C@H](CO)NC(=O)[C@@H]([C@@H](O)[C@@H]2CN=C(N)N2[C@H]2O[C@H](CO)[C@@H](O)[C@H](O)[C@@H]2O)NC(=O)[C@H]([C@@H](O)[C@@H]2CN=C(N)N2)NC(=O)[C@@H](Cc2ccc(O[C@H]3O[C@H](CO)[C@@H](O[C@H]4O[C@H](COCc5cccs5)[C@@H](O)[C@H](O)[C@@H]4O)[C@H](O)[C@@H]3O)cc2)NC1=O
- MIC [9]: 1 µg/mL (≈ 0.719 µM)
- MIC [10]: 0.5 µg/mL (≈ 0.359 µM)
- MIC [11]: 4 µg/mL (≈ 2.87 µM)

SMILES: CCN1CCN(C(=O)N[C@@H](C(=O)N[C@@H]2C(=O)N3[C@@H]2SC(C)(C)[C@@H]3C(=O)O)c2ccccc2)C(=O)C1=O [PIPERACILLIN]
- MIC [12]: 0.25 µg/mL (≈ 0.483 µM)
- MIC [13]: ≤ 0.06 µg/mL
- MIC [14]: 0.5 µg/mL (≈ 0.966 µM)

More lines, now with the values ahead:

- MIC [1]: 2 µg/mL (≈ 1.31 µM)
- MIC [2]: ≤ 0.06 µg/mL
- MIC [3]: 2 µg/mL (≈ 1.31 µM)
SMILES: COc1ccc(COC[C@H]2O[C@H](O[C@H]3[C@H](O)[C@H](O)[C@@H](Oc4ccc(C[C@H]5NC(=O)[C@H]([C@@H](C)c6ccccc6)NC(=O)CNC(=O)[C@H](CO)NC(=O)[C@@H]([C@@H](O)[C@@H]6CN=C(N)N6[C@H]6O[C@H](CO)[C@@H](O)[C@H](O)[C@@H]6O)NC(=O)[C@H]([C@@H](O)[C@@H]6CN=C(N)N6)NC5=O)cc4)O[C@@H]3CO)[C@@H](O)[C@@H](O)[C@@H]2O)cc1OCc1ccccc1

- MIC [7]: 1 µg/mL (≈ 0.67 µM)
- MIC [8]: 1 µg/mL (≈ 0.67 µM)
- MIC [5]: ≤ 0.06 µg/mL
SMILES: C[C@@H](c1ccccc1)[C@@H]1NC(=O)CNC(=O)[C@H](CO)NC(=O)[C@@H]([C@@H](O)[C@@H]2CN=C(N)N2[C@H]2O[C@H](CO)[C@@H](O)[C@H](O)[C@@H]2O)NC(=O)[C@H]([C@@H](O)[C@@H]2CN=C(N)N2)NC(=O)[C@@H](Cc2ccc(O[C@H]3O[C@H](CO)[C@@H](O[C@H]4O[C@H](COCc5ccc(OCc6ccccc6)cc5)[C@@H](O)[C@H](O)[C@@H]4O)[C@H](O)[C@@H]3O)cc2)NC1=O
